Test results taken from patent US8778927B2, “Smoothened antagonism for the treatment of hedgehog pathway-related disorders” (Novartis AG, priority 2008, dated 2014).

Experiments:
[1] = tested on: Cholesterol biosynthesis pathway genes; experiment: Affymetrix mRNA profiling of tumors, cholesterol biosynthesis genes; format: in vivo, mouse; settings: sensitive and resistant tumors
Experimental: (§1) In order to characterize changes in gene expression in sensitive tumors compared to resistant tumors (both of which terms are defined herein), RNA was isolated from sensitive tumors treated with vehicle or Compound 1 for 4 (single dose), 16 (single dose) and 48 hours (three doses) as well as from resistant tumors (that initially had regressed in the presence of Compound 1 (day 13) but then regrew in the presence of drug as described above). Three tumors were analyzed per treatment group: The sensitive tumor group comprises tumors treated with 20 mg/kg of Compound 1 for 4 hours; 16 hours; and 48 hours. The resistant tumor group comprises tumors treated with 10 mg/kg bid and 80 mg/kg bid of Compound 1 for 26 days. mRNA expression in tumor samples was analyzed by Affymetrix profiling. The expression data were analyzed using the GeneGo pathway program, which groups data according to signal transduction pathways.

[2] = tested on: resistant medulloblastoma tumor cells; experiment: ex-vivo medulloblastoma proliferation assay (3H thymidine, 48 h), resistant tumor cells; format: cell-based, mouse; settings: Mus musculus
Experimental: (§2) The effect of statins (e.g., simvastatin, flustatin) on the proliferation of medulloblastoma cells derived from sensitive and resistant Ptch+/− cells was evaluated by using an “ex-vivo medulloblastoma proliferation assay.” Using Ptch+/−p53−/−, Ptch+/−Hic+/− or Ptch+/− medulloblastoma tumors freshly harvested from allografted nude mice, we have developed a short-term 48 h proliferation assay that enables us to assess the in vitro potency of Smo inhibitors. The read-out for proliferation uses incorporation of 3H thymidine. The assay reflects the in vivo sensitivity of tumor cells to Compound 1.
(§3) The effect of PI3K inhibitors (e.g., compounds such as Compound A) on the proliferation of medulloblastoma cells derived from sensitive and resistant medulloblastoma cells was evaluated by using an “ex-vivo medulloblastoma proliferation assay,” as described above.

[3] = tested on: sensitive medulloblastoma tumor cells; experiment: ex-vivo medulloblastoma proliferation assay (3H thymidine, 48 h), sensitive tumor cells; format: cell-based; settings: Mus musculus
Experimental: as §2, §3

[4] = tested on: Hedgehog signaling pathway genes; experiment: Affymetrix mRNA profiling of tumors, Hedgehog pathway genes; format: in vivo, mouse
Experimental: as §1

[5] = tested on: Ptch+/− medulloblastoma allograft; experiment: Ptch+/− medulloblastoma allograft model, continuous dosing; format: in vivo, mouse; settings: day 48
Excerpt: (§4) Mouse medulloblastoma cells (1.0−5.0×10^6), dissociated directly from tumor fragments originally derived from spontaneously arising medulloblastomas in Ptch+/−p53−/−, Ptch+/−Hic+/− or Ptch+/− mice, were inoculated subcutaneously into the right flank of Harlan nu/nu mice. Treatment was initiated approximately 7-10 days post implantation. Animals were randomized into treatment groups with similar mean tumor volumes that ranged from approximately 250-300 mm3. Tumor volumes (mm3) and body weights (g) were recorded two or three times per week from all groups for analysis. Dose was body weight adjusted at time of dosing. Comparisons between treatment groups was performed using a non-parametric Kruskal-Wallis/Wilcoxon Rank Sum Test.
(§5) Tumors were calipered in two dimensions, and the volumes were calculated using the formula: (length×width2)/2, where length is the longer of the two measurements and width is the shorter one. Percent treatment/control (% T/C) values were calculated using the following formula: % T/C=100×ΔTf−i/ΔCf−i if ΔTf−i>0, % T/T0=100×ΔTf−i/T0 if ΔTf−i<0 (regression). A partial responder (PR) was defined as an animal whose tumor was less than 50% of the initial tumor volume by the end of the study. An animal with no palpable tumor by the end of study is defined as a complete responder (CR).
Treatments started on day 7 post implantation (5 million cells/animal). Compound 1 was administered po at 10 mg/kg qd, 20 mg/kg qd, 40 mg/kg qd, 80 mg/kg qd and 160 mg/kg qd for the length of study. Compound 2 was administered at 100 mg/kg bid for the length of study. Vehicle control of Compound 1 was 0.5% methylcellulose 0.5% Tween 80 in water. The initial group size consisted of 8 animals. The vehicle group was taken down 7 days after treatment (tumors greater than 10% of mouse body weight). Similar resistance was seen to that observed with the Ptc+/−Hic+/− model, with a subset of the complete responders growing back and others showing complete regression (Table 2). Sustained regression listed in Table 2 represent number of complete regressions still present at the end of study on day 48.

[6] = tested on: Ptch+/−Hic+/− medulloblastoma allograft; experiment: combination of Smo inhibitor and PI3K inhibitor in Ptch+/−Hic+/− medulloblastoma allograft model; format: in vivo, mouse
Excerpt: Mouse medulloblastoma cells (1.0-5.0×10^6), dissociated directly from tumor fragments originally derived from spontaneously arising medulloblastomas in Ptch+/-p53-/-, Ptch+/-Hic+/- or Ptch+/- mice, were inoculated subcutaneously into the right flank of Harlan nu/nu mice. Treatment was initiated approximately 7-10 days post implantation. Animals were randomized into treatment groups with similar mean tumor volumes that ranged from approximately 250-300 mm3. Tumor volumes (mm3) and body weights (g) were recorded two or three times per week from all groups for analysis. Dose was body weight adjusted at time of dosing. Comparisons between treatment groups was performed using a non-parametric Kruskal-Wallis/Wilcoxon Rank Sum Test. Tumors were calipered in two dimensions, and the volumes were calculated using the formula: (length×width2)/2, where length is the longer of the two measurements and width is the shorter one. […] A partial responder (PR) was defined as an animal whose tumor was less than 50% of the initial tumor volume by the end of the study. An animal with no palpable tumor by the end of study is defined as a complete responder (CR). Next, a combination of Compound 1 and Compound A was explored in the Ptch+/-Hic+/- medulloblastoma allograft model. […] Animals treated with vehicle control and with compound A had to be sacrificed around day 20 and 25, respectively, because their tumor volume reached 1500 mm3. […] Similar results were obtained for animals treated with Compound 1 alone for the first 10 days, followed by single agent treatment with Compound A (data not shown). […] Next, a combination of Compound 1 and Compound B was explored in the Ptch+/-Hic+/- medulloblastoma allograft model. […] Animals treated with vehicle control and with compound B reached the endpoint around day 12 to 15, respectively, because their tumor volume reached 700 mm3.

[7] = tested on: Ptch+/−Hic+/− medulloblastoma allograft; experiment: Ptch+/−Hic+/− medulloblastoma allograft model, continuous dosing; format: in vivo, mouse; settings: day 47
Excerpt: as §4, §5
Treatments started on day 7 post implantation (5 million cells/animal). Compound 1 was administered po at 5 mg/kg bid, 10 mg/kg bid, 20 mg/kg qd, 20 mg/kg bid, 40 mg/kg bid and 80 mg/kg bid for the length of study. Compound 2 was administered at 100 mg/kg bid for the length of study. Vehicle control of Compound 1 was 0.5% methylcellulose 0.5% Tween 80 in water. The initial group size consisted of 8 animals. The vehicle group was taken down 10 days after treatment (tumors greater than 10% of mouse body weight).
Sustained regressions listed in the Table 1 represent number of complete responses still present at the end of study on day 47.
Two additional Smo inhibitors, Compound 3 and Compound 4 were evaluated in follow-up studies in the Ptch+/−Hic+/− model upon continous dosing.

PI3K pathway genes = experiment: Affymetrix mRNA profiling of tumors, PI3K pathway genes; format: in vivo, mouse
Experimental: as §1

Cc1c(C(=O)Nc2ccc(N3C[C@@H](C)O[C@@H](C)C3)nc2)cccc1-c1ccc(OC(F)(F)F)cc1 [Compound 1, 2-Methyl-4′-trifluoromethoxy-biphenyl-3-carboxylic acid [6-(cis-2,6-dimethyl-morpholin-4-yl)-pyridin-3-yl]-amide]
expression of genes of the Cholesterol biosynthesis pathway [1]: A similar expression pattern was observed
IC50 ([2]; Resistant tumor, Table 3): > 20000 nM
IC50 ([2]; ptch+/− Hic+/−, Resistant, Table 4): > 20000 nM
IC50 ([2]; resistant tumors, summary of Table 4): > 20000 nM
IC50 ([2]; resistant tumors, text b482): > 20000 nM
IC50 ([3]; Sensitive tumor, Table 3): 3 nM
IC50 ([3]; ptch+/− Hic+/−, sensitive, Table 4): 2 nM
IC50 ([3]; sensitive cells, summary of Table 4): 2 to 4 nM
IC50 ([3]; sensitive tumor cells, text b482): 4 nM
expression of Hedgehog pathway genes ([4]; resistant tumors, 10 and 80 mg/kg bid, 26 days): no longer sufficiently inhibited the expression of Hedgehog pathway genes
expression of genes indicative of Hedgehog signaling pathway activity ([4]; sensitive tumors, 20 mg/kg, 4 h, 16 h, 48 h): suppressed in sensitive tumors in a time-dependent manner
sustained regressions (complete regressions still present at end of study) ([5]; 10 mg/kg qd po): 0/8
sustained regressions (complete regressions still present at end of study) ([5]; 20 mg/kg qd po): 1/8
sustained regressions (complete regressions still present at end of study) ([5]; 40 mg/kg qd po): 1/8
sustained regressions (complete regressions still present at end of study) ([5]; 80 mg/kg qd po): 4/8
sustained regressions (complete regressions still present at end of study) ([5]; 160 mg/kg qd po): 5/8
effect on tumor growth ([6]; 40 mg/kg qd, FIG. 6A): initially induced regression but tumors started to regrow
time to endpoint (tumor volume >1500 mm3) ([6]; 40 mg/kg qd, FIG. 6B): significantly prolonged
effect on tumor growth ([6]; 80 mg/kg qd, FIG. 7A): initially induced regression but tumors started to regrow
time to endpoint (tumor volume >700 mm3) ([6]; 80 mg/kg qd, FIG. 7B): significantly prolonged
sustained regressions (complete responses still present at end of study) ([7]; 5 mg/kg bid po): 0/8
sustained regressions (complete responses still present at end of study) ([7]; 10 mg/kg bid po): 1/8
sustained regressions (complete responses still present at end of study) ([7]; 20 mg/kg bid po): 7/8
sustained regressions (complete responses still present at end of study) ([7]; 20 mg/kg qd po): 0/8
sustained regressions (complete responses still present at end of study) ([7]; 40 mg/kg bid po): 3/8
sustained regressions (complete responses still present at end of study) ([7]; 80 mg/kg bid po): 6/8
PI3K pathway activity (gene expression) (PI3K pathway genes; resistant tumors compared to sensitive tumors): upregulation of PI3K pathway activity was observed in resistant tumors
expression of genes indicative of PI3K pathway activity (PI3K pathway genes; sensitive tumors, 4, 16 and 48 h): No changes in gene expression were detected
